According to ChEMBL document CHEMBL1201862, “PubChem BioAssay data set” (2004):
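Interpolation was linear, between the two tested concentrations surrounding the appropriate level; five concentrations were tested over 48 hours in 96-well plates. At the GI50, growth is halved.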 Calls of active or inactive are those of the source. Rule as the data show it: active = GI50 up to about 1.1 µM and inactive = higher.

Experiments:
Assay in all cases: NCI tumour cell line growth inhibition, 48 h
[1] = system: NCI-H522
[2] = system: UACC-62
[3] = system: LOX IMVI
[4] = system: M14
[5] = system: KM12
[6] = system: OVCAR-8
[7] = system: MDA-MB-435
[8] = system: HCC 2998
[9] = system: A549
[10] = system: HCT-15
[11] = system: 786-0
[12] = system: SN12C
[13] = system: NCI-H23
[14] = system: IGROV-1
[15] = system: HL-60
[16] = system: Malme-3M
[17] = system: HOP-62
[18] = system: HOP-92
[19] = system: RXF 393
[20] = system: SF-539

Structure (SMILES)	GI50 [1]	GI50 [2]	GI50 [3]	GI50 [4]	GI50 [5]	GI50 [6]	GI50 [7]	GI50 [8]	GI50 [9]	GI50 [10] [µM]	GI50 [11]	GI50 [12]	GI50 [13]	GI50 [14]	GI50 [15]	GI50 [16]	GI50 [17]	GI50 [18]	GI50 [19]	GI50 [20]
C=CC(=O)N1C/C(=C\c2ccccc2)C(=O)/C(=C/c2ccccc2)C1	1.24 µM (inactive)	1.19 µM (inactive)	0.254 µM (active)	1.71 µM (inactive)	0.989 µM (active)	1.3 µM (inactive)	0.53 µM (active)	1.95 µM (inactive)	2.92 µM (inactive)	1.18	1.06 µM (active)	1.67 µM (inactive)	2.14 µM (inactive)	1.97 µM (inactive)	0.71 µM (active)	2.15 µM (inactive)	2.33 µM (inactive)	3.62 µM (inactive)	2.15 µM (inactive)	1.58 µM (inactive)
C=CO/N=[N+](\[O-])N(CC)CC	> 100 µM (inactive)	> 100 µM (inactive)	> 100 µM (inactive)	> 100 µM (inactive)	> 100 µM (inactive)	> 100 µM (inactive)	> 100 µM (inactive)	> 100 µM (inactive)	> 100 µM (inactive)	> 100	> 100 µM (inactive)	> 100 µM (inactive)	> 100 µM (inactive)	> 100 µM (inactive)	> 100 µM (inactive)	> 100 µM (inactive)	> 100 µM (inactive)	> 100 µM (inactive)	> 100 µM (inactive)	> 100 µM (inactive)
COc1ccc2c(c1)-c1nc(=S)n(CCCN(C)C)c3ccc([N+](=O)[O-])c(c13)N2	0.766 µM (active)	12.1 µM (inactive)	0.53 µM (active)	8.26 µM (inactive)	0.543 µM (active)	0.456 µM (active)	1.97 µM (inactive)	1.5 µM (inactive)	0.363 µM (active)	0.484	0.279 µM (active)	0.582 µM (active)	1.08 µM (active)	0.345 µM (active)	0.0269 µM (active)	0.518 µM (active)	0.451 µM (active)	2.15 µM (inactive)	0.471 µM (active)	0.589 µM (active)
Nc1ncnc2c1ncn2CC(O)C(=O)O (centres undefined)	> 100 µM (inactive)	> 100 µM (inactive)	> 100 µM (inactive)	> 100 µM (inactive)	> 100 µM (inactive)	> 100 µM (inactive)	> 100 µM (inactive)	> 100 µM (inactive)	> 100 µM (inactive)	> 100	> 100 µM (inactive)	> 100 µM (inactive)	> 100 µM (inactive)	> 100 µM (inactive)	> 100 µM (inactive)	> 100 µM (inactive)	> 100 µM (inactive)	> 100 µM (inactive)	> 100 µM (inactive)	> 100 µM (inactive)
Cc1cn(S(=O)(=O)c2ccccc2)c2c(OCc3ccccc3)cc(NS(C)(=O)=O)cc12	18.8 µM (inactive)	17.9 µM (inactive)	11.4 µM (inactive)	19.2 µM (inactive)	10.9 µM (inactive)	32 µM (inactive)	9.64 µM (inactive)	24.4 µM (inactive)	9.82 µM (inactive)	12.9	16.4 µM (inactive)	13.7 µM (inactive)	16 µM (inactive)	33 µM (inactive)	4.52 µM (inactive)	8.38 µM (inactive)	50.2 µM (inactive)	27.2 µM (inactive)	14.6 µM (inactive)	38.8 µM (inactive)
O=P(O)(O)C(NCC(O)CN1CCOCC1)P(=O)(O)O (centres undefined)	> 100 µM (inactive)	> 100 µM (inactive)	> 100 µM (inactive)	> 100 µM (inactive)	> 100 µM (inactive)	> 100 µM (inactive)	> 100 µM (inactive)	> 100 µM (inactive)	> 100 µM (inactive)	> 100	> 100 µM (inactive)	–	> 100 µM (inactive)	> 100 µM (inactive)	> 100 µM (inactive)	> 100 µM (inactive)	> 100 µM (inactive)	> 100 µM (inactive)	> 100 µM (inactive)	> 100 µM (inactive)
